Measured values from US11413278B2, “Compounds and methods for promoting stress resistance” (priority 2015, dated 2022).
Entries after “also recorded” stand apart in the source; their conditions may differ. Like-named read-outs stand apart in the source and are kept apart here.

Tests used:
Format in all cases: cell-based, human
FOXO3 = experiment: qPCR analysis of FOXO3-regulated genes; settings: for fold induction at 10 µM: Homo sapiens; for K = Sestrin induction: score; for Induction of at least two of five FOXO3-regulated genes (SOD2, GADD45A, CAT, DDB1, TXNIP): WI-38
How it was run: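 WI-38 cells treated with compound at 10 μM for 24 h, followed by Cells-to-Ct RT-qPCR of FOXO3 target genes normalised to B2M, PPIA and GAPDH. FOXO3 or NRF2 dependence tested by prior 10 nM siRNA knockdown (36 h transfection, compound added ~24 h after replating).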

mTOR = mTOR inhibition (RPS6 phosphorylation status), In-Cell Western; settings: for Exp. 1, normalized reduction in p-RPS6/RPS6 ratio / Exp. 3, normalized reduction in p-RPS6/RPS6 ratio: n=4
Procedure: In-Cell Western assays were performed, following a standard immuno-staining protocol. Briefly, WI-38 cells were treated with small molecules for 24 hrs, and then processed and incubated with primary antibody cocktail (Cell Signaling, mouse anti-RPS, 1:25; rabbit-anti-pRPS6-(Ser-235/236), 1:100) overnight at 4° C. Next day, samples were processed and incubated with fluorophore-conjugated secondary antibodies (Cell Signaling, DyLight 680-goat anti-mouse, 1:500; DyLight 800-goat anti-rabbit, 1:1,000). Images were collected on an Odyssey Imager (LI-COR) and analyzed with the Image Studio Lite software (version 5.0.21).
Mammalian target of rapamycin (mTOR) is a crucial regulator of cell growth and metabolism and has been implicated in aging and many diseases, including cancer, diabetes and neurological diseases (Dazert and Hall, 2011; Zoncu et al., 2011). […] In addition, the anti-diabetes drug metformin (Kalender et al., 2010), as well as other AMPK activators such as 2-deoxy-D-glucose (Inoki et al., 2003) and AICAR (Shaw et al., 2004), could inhibit mTORC1. Applicants examined the effects of our molecules (at three doses, 5 μM, 10 μM and 20 μM) on the phosphorylation status of ribosomal protein S6 (RPS6), a readout of mTOR activity, to ask whether they could inhibit mTOR.
In-Cell Western assays were performed, following the same procedures to analyze DNA-damage markers. WI-38 cells were incubated with small molecules for 24 hrs, and then processed and incubated with primary antibody cocktail (mouse anti-RPS, 1:25; rabbit-anti-pRPS6, 1:100) overnight at 4° C. Next day, samples were processed and incubated with fluorophore-conjugated secondary antibodies (goat anti-mouse, 1:500; goat anti-rabbit, 1:1,000) in antibody dilution buffer. Images were collected on an Odyssey Imager (LI-COR) and analyzed with the Image Studio Lite software.

LC3A/B puncta = experiment: Autophagy induction analysis (LC3A/B puncta immuno-staining); settings: for Exp. 2, normalized change of nuclei numbers (Less cells): 20X objective, lysosomal LAMP co-staining
Procedure: Immuno-staining of LC3A/B was performed, following a standard protocol. Briefly, WI-38 cells were treated with small molecules for 24 hrs, and then processed and incubated with primary antibody (Cell Signaling, rabbit anti-LC3A/B, 1:100) overnight at 4° C. Next day, samples were processed and incubated with fluorophore-conjugated secondary antibody and further incubated with DAPI dye. Images were collected on the INCell Analyzer 2000 (Experiment 1: 10× objective; Experiment 2: 20× objective) and analyzed with the Developer Toolbox. For Experiment 2, lysosomal-associated membrane protein 2 (LAMP2) was also counter-stained to identify the LC3A/B puncta that colocalize with lysosome and the data were analyzed by the MetaXpress software (Molecular Devices, version 5.1). The intensity of total (Exp. 1) or LAMP2-colocalized LC3A/B puncta (Exp. 2) was normalized the total numbers nuclei in the fields.
These assays were performed, following the same procedures to analyze DNA-damage markers. WI-38 cells were incubated with small molecules for 24 hrs, and then processed and incubated with primary antibody (rabbit anti-LC3A/B, 1:100) overnight at 4 C. The next day, samples were processed and incubated with fluorophore-conjugated secondary antibody and further incubated with DAPI dye. Images were collected on an INCell Analyzer 2000 and analyzed with the Developer software. Total LC3A/B puncta intensity was normalized the total numbers of DAPI-positive nuclei.

[1] = WI-38 cells, 10 μM, 24 hrs, n=4, qPCR normalized by B2M, read-out: DDB1 Normalized fold change
[2] = WI-38 cells, 10 μM, 24 hrs, n=4, qPCR normalized by B2M, read-out: GADD45A Normalized fold change
[3] = WI-38 cells, 10 μM, 24 hrs, n=4, qPCR normalized by B2M, read-out: SESN1 Normalized fold change
[4] = qPCR, WI-38 cells, 10 μM, n=4, 24 hrs, normalized by B2M, read-out: CAT Normalized fold change
[5] = qPCR, WI-38 cells, 10 μM, n=4, 24 hrs, normalized by B2M, read-out: SOD2 Normalized fold change
[6] = qPCR, WI-38 cells, 10 μM, n=4, 24 hrs, normalized by B2M, read-out: TXNIP Normalized fold change
[7] = 24 h, Assay 10(m), at 10 uM, qPCR, read-out: Induction of FOXO3-regulated genes: CAT normalized fold-change
[8] = 24 h, Assay 10(m), at 10 uM, qPCR, read-out: Induction of FOXO3-regulated genes: GADD45A normalized fold-change
[9] = 24 h, Assay 10(m), at 10 uM, qPCR, read-out: Induction of FOXO3-regulated genes: TXNIP normalized fold-change
[10] = 10 μM, 24 hrs, WI-38 cells, qPCR, normalized to B2M, n = 4, read-out: CAT expression, normalized fold change (FOXO3-regulated gene)
[11] = 10 μM, 24 hrs, WI-38 cells, qPCR, normalized to B2M, n = 4, read-out: TXNIP expression, normalized fold change (FOXO3-regulated gene)
[12] = fold change, qPCR, WI-38 cells, 10 μM, 24 hrs, read-out: Summary of effects on FOXO3-regulated genes: CAT
[13] = fold change, qPCR, WI-38 cells, 10 μM, 24 hrs, read-out: Summary of effects on FOXO3-regulated genes: TXNIP
[14] = 24 h, Assay 10(m), at 10 uM, qPCR, read-out: Induction of FOXO3-regulated genes: DDB1 normalized fold-change
[15] = 10 μM, 24 hrs, WI-38 cells, qPCR, normalized to B2M, n = 4, read-out: DDB1 expression, normalized fold change (FOXO3-regulated gene)
[16] = fold change, qPCR, WI-38 cells, 10 μM, 24 hrs, read-out: Summary of effects on FOXO3-regulated genes: DDB1
[17] = 10 μM, 24 hrs, WI-38 cells, qPCR, normalized to B2M, n = 4, read-out: GADD45A expression, normalized fold change (FOXO3-regulated gene)
[18] = fold change, qPCR, WI-38 cells, 10 μM, 24 hrs, read-out: Summary of effects on FOXO3-regulated genes: GADD45A

| Compound | E = Potential FOXO3 Activation (FOXO3; 2-point score) | fold induction at 10 µM (FOXO3; [1]) | fold induction at 10 µM (FOXO3; [2]) | fold induction at 10 µM (FOXO3; [3]) | fold induction at 10 µM (FOXO3; [4]) | fold induction at 10 µM (FOXO3; [5]) | fold induction at 10 µM (FOXO3; [6]) | K = Sestrin induction (FOXO3) | E = Potential FOXO3 Activation (FOXO3; summary score) | G = mTOR down-regulation (mTOR; 2-point score) | G = mTOR down-regulation (mTOR; summary score) | H = Potential Autophagy Induction (LC3A/B puncta; score) | H = Potential Autophagy Induction (LC3A/B puncta; summary score) | Induction of at least two of five FOXO3-regulated genes (SOD2, GADD45A, CAT, DDB1, TXNIP) (FOXO3; 10 μM, 24 hrs) | fold induction at 10 µM (FOXO3; [7]) | fold induction at 10 µM (FOXO3; [8]) | fold induction at 10 µM (FOXO3; [9]) | fold induction at 10 µM (FOXO3; [10]) | fold induction at 10 µM (FOXO3; [11]) | fold induction at 10 µM (FOXO3; [12]) | further results |
| --- | --- | --- | --- | --- | --- | --- | --- | --- | --- | --- | --- | --- | --- | --- | --- | --- | --- | --- | --- | --- | --- |
| CCc1ccc(Oc2nc3ccccn3c(=O)c2/C=C(\C#N)C(=O)NCc2ccco2)cc1 [Gr-5B] | 0 | 1.25 | 0.808 | 1.36 | 1.42 | 1.13 | 1.2 | 0 | 0 | 0 | 0 | 0 | 0 | – | – | – | – | – | – | – | – |
| Cc1ccc(S(=O)(=O)Nc2cccc3cccnc23)cc1 [Gr-3B] | 0 | 1.12 | 1.16 | 1.07 | 1.11 | 1.14 | 1.06 | 0 | 0 | 0 | 0 | 0 | 0 | – | – | – | – | – | – | – | – |
| O=C(Nc1cccc(C(F)(F)F)c1)c1ccc([N+](=O)[O-])o1 [Gr-1E] | 0 | 1.39 | 0.752 | 1.4 | 1.45 | 1.46 | 2.02 | 0 | 0 | 0 | 0 | 0 | 0 | significant induction; also recorded: significant, induction | 1.38 | 0.62 | 1.33 | 1.45 | 2.02 | 1.45 | fold induction at 10 µM (FOXO3; 24 h, Assay 10(m), at 10 uM, qPCR, read-out: Induction of FOXO3-regulated genes: SESN1 normalized fold-change): 1.34; fold induction at 10 µM (FOXO3; 10 μM, 24 hrs, WI-38 cells, qPCR, normalized to B2M, n = 4, read-out: SESN1 expression, normalized fold change (FOXO3-regulated gene)): 1.4; fold induction at 10 µM (FOXO3; fold change, qPCR, WI-38 cells, 10 μM, 24 hrs, read-out: Summary of effects on FOXO3-regulated genes: SESN1): 1.4; fold induction at 10 µM (FOXO3; [13]): 2.02; Exp. 1, induction of LC3A/B puncta (Up), total intensity normalized by total number of nuclei in the fields (LC3A/B puncta; Exp. 1, 10 μM, 10X objective, WI-38 cells): Up, 260%, p < 0.01; Exp. 2, normalized change of nuclei numbers (Less cells) (LC3A/B puncta; Exp. 2, 10 μM, WI-38 cells): Less cells, 75%,; Exp. 2, normalized change of nuclei numbers (Less cells) (LC3A/B puncta; Exp. 2, 20 μM, WI-38 cells): Less cells, 58%, |
| O=C(/C=C/c1cn(-c2ccccc2)nc1-c1cccnc1)c1ccccc1 [Gr-6B] | 0 | 1.19 | 1.26 | 1.25 | 1.11 | 1.14 | 0.861 | 0 | 0 | 0 | 0 | 0 | 0 | – | – | – | – | – | – | – | fold induction at 10 µM (FOXO3; [14]): 1.19; fold induction at 10 µM (FOXO3; [15]): 1.19; fold induction at 10 µM (FOXO3; [16]): 1.19 |
| O=C(NCc1cccnc1)/C(=C\c1ccc(Br)cc1)S(=O)(=O)c1ccccc1 [Gr-7B] | 0 | 1.31 | 2.07 | 0.952 | 1.13 | 1.33 | 0.262 | 0 | 0 | 2 | 2 | 0 | 0 | – | – | 2.07 | 0.26 | – | 0.26 | – | fold induction at 10 µM (FOXO3; [17]): 2.07; fold induction at 10 µM (FOXO3; [18]): 2.07; fold induction at 10 µM (FOXO3; [13]): 0.26; mTOR down-regulation by p-RPS6 assays (mTOR; Assay 14(q), at 5 uM, 10 uM & 20 uM): YES; Exp. 1, normalized reduction in p-RPS6/RPS6 ratio (mTOR; Exp. 1, In-Cell Western): ~67% (−), at 20 μM; Exp. 1, normalized reduction in p-RPS6/RPS6 ratio (mTOR; Exp. 1, at 10 μM, In-Cell Western): ~65% (−), at 10 μM;; Exp. 3, normalized reduction in p-RPS6/RPS6 ratio (mTOR; Exp. 3, In-Cell Western): ~53% (−), at 20 μM; Exp. 3, normalized reduction in p-RPS6/RPS6 ratio (mTOR; Exp. 3, at 5 μM, In-Cell Western): ~48% (−), at 5 μM;; Exp. 3, normalized reduction in p-RPS6/RPS6 ratio (mTOR; Exp. 3, at 10 μM, In-Cell Western): ~45% (−), at 10 μM;; mTOR inhibition (p-RPS6/RPS6), qualitative (mTOR; In-Cell Western): mTOR-inhibiting activities; also recorded: consistently reduced the ratios |
| O=C(c1ccc([N+](=O)[O-])o1)N1CCc2ccccc21 [O13] | 0 | 1.27 | 1.2 | 1.23 | 1.32 | 1.09 | 0.907 | 0 | 0 | 0 | 0 | 0 | 0 | significant induction; also recorded: significant, induction | 1.33 | 1.2 | – | 1.33 | – | 1.33 | fold induction at 10 µM (FOXO3; [14]): 1.27; fold induction at 10 µM (FOXO3; [15]): 1.27; fold induction at 10 µM (FOXO3; [17]): 1.2; fold induction at 10 µM (FOXO3; [16]): 1.27; fold induction at 10 µM (FOXO3; [18]): 1.2 |
